In US20070117858A1, “SUBSTITUTED 5-HETEROARYL-1-PHENYL-PYRAZOLE CANNABINOID MODULATORS” (priority 2005, published 2007):
Read-outs that look alike come from different tables or passages of the source.

What was measured:
human CB1 receptor = target: T1, human CB1 receptor (Homo sapiens, UniProt P21554); test: Cannabinoid CB1 receptor binding assay ([3H]-CP-55,940 displacement, SK-N-MC cell membranes); conditions: for inhibition at 0.2 µM: 1.5 h, read-out: Cannabinoid CB1 Receptor Binding, percent inhibition
T1 construct: expressed in transfected cells; host or cells: SK-N-MC cells, stably transfected with pcDNA3 CB-1 (human); semi-purified membrane pellet
T1 sequence (P21554 whole entry): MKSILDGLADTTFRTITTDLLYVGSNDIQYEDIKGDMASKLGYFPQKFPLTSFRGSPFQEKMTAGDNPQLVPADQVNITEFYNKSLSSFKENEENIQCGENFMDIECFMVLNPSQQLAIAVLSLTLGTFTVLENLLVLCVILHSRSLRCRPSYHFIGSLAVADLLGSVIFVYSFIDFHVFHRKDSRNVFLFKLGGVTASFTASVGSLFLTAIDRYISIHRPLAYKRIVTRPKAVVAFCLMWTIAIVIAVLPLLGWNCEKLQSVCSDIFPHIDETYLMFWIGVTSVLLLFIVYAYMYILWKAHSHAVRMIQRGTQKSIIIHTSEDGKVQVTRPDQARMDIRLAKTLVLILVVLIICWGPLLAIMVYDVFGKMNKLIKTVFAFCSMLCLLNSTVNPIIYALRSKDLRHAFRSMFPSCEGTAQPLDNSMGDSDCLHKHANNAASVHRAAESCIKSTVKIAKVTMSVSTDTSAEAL
Protocol: (§1) Binding Assay for CB1 or CB2 Agonists or Inverse Agonists
(§2) The human CB1 and CB2 receptors were stably expressed in SK-N-MC cells transfected with pcDNA3 CB-1 (human) or pcDNA3 CB-2 (human). The cells were grown in T-180 cell culture flasks under standard cell culture conditions at 37° C. in a 5% CO2 atmosphere. The cells were harvested by trysinization and homogenized in a homogenization buffer (10 mM Tris, 0.2 mM MgCl2, 5 mM KCl, with protease inhibitors aprotinin, leupeptin, pepstatin A and bacitracin) and centrifuged (2000 g). The supernatant was then centrifuged in 2M sucrose (31,300 g) to produce a semi-purified membrane pellet. The pellet was resuspended in homogenization and stored at −80° C.
(§3) On the day of the assay, the pellet was thawed on ice and diluted in assay buffer (50 mM Tris-HCl, 5 mM MgCl2, 2.5 mM EDTA, 0.5 mg/mL fatty acid free bovine serum albumin, pH 7.5). The diluted membrane pellet was added with buffer, either a test compound or vehicle standard and the radioligand […] (0.2 nM) to the wells of a 96-well polypropylene plate. Non-specific binding was measured in wells containing W1N 55,212 (10 uM). The plate was covered and incubated for 90 minutes at 30° C. The contents were then aspirated onto a Packard Unifilter GF/C filter bottom plate prewet with 0.5% polyethyleneimine. The wells of the polypropylene plate were rinsed and aspirated seven times with a 0.9% saline-0.5% Tween 20 solution. The Unifilter plate was dried, scintillation cocktail was added to each well and the counts representing binding were quantitated in a TopCount scintillation counter.
(§4) For compounds tested, an IC50 binding value was obtained from percent inhibition studies in which various test concentrations were used. The binding value was calculated by linear regression.
(§5) For compounds without an IC50 binding value, the percent inhibition (%) was obtained at a test concentration of 0.2 μM.

human CB2 receptor = target: T2, human CB2 receptor (Homo sapiens, UniProt P34972); test: Cannabinoid CB2 receptor binding assay ([3H]-CP-55,940 displacement, SK-N-MC cell membranes); conditions: 1.5 h; test concentration of 0.2 μM; radioligand CP-55,940 0.2 nM; read-out: Cannabinoid CB2 Receptor Binding, percent inhibition
T2 construct: expressed in transfected cells; host or cells: SK-N-MC cells, stably transfected with pcDNA3 CB-2 (human); semi-purified membrane pellet
T2 sequence (P34972 whole entry): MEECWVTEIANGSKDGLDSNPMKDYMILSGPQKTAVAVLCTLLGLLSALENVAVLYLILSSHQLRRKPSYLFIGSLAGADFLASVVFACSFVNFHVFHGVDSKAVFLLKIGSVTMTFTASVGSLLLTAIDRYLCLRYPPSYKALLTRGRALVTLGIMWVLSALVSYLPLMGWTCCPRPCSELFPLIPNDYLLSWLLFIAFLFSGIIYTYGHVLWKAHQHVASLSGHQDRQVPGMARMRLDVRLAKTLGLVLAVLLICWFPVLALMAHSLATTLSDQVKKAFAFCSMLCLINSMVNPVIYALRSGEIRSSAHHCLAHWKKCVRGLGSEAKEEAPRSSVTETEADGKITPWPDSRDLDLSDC
Protocol: as §1, §2, §3, §4, §5

Structure (SMILES) | IC50 (human CB1 receptor) | inhibition at 0.2 µM (human CB2 receptor) | inhibition at 0.2 µM (human CB1 receptor) | IC50 (human CB1 receptor; from percent inhibition studies at various test concentrations, calculated by linear regression, radioligand CP-55,940 0.2 nM, read-out: Cannabinoid CB1 Receptor Binding, IC50 binding value)
Cc1c(C(=O)N[C@H](C)c2ccccc2)nn(-c2ccc(Cl)cc2Cl)c1-c1ccc(Cl)s1 [Cpd 14, 5-(5-chloro-thiophen-2-yl)-1-(2,4-dichloro-phenyl)-4-methyl-1H-pyrazole-3-carboxylic acid [(1R)-1-phenyl-ethyl]-amide] | 27 nM | 40% | – | –
CCc1c(C(=O)NN2CCCCC2)nn(-c2ccc(Cl)cc2Cl)c1-c1ccc(Cl)s1 [Cpd 15, 5-(5-chloro-thiophen-2-yl)-1-(2,4-dichloro-phenyl)-4-ethyl-1H-pyrazole-3-carboxylic acid piperidin-1-ylamide] | 12 nM | 29% | – | –
C[C@@H](NC(=O)c1nn(-c2ccc(Cl)cc2Cl)c(-c2cccs2)c1C#N)c1ccccc1 [Cpd 16, 4-cyano-1-(2,4-dichloro-phenyl)-5-thiophen-2-yl-1H-pyrazole-3-carboxylic acid [(1R)-1-phenyl-ethyl]-amide] | – | 17% | 61% | –
Cc1c(C(=O)N[C@@H](C)c2ccccn2)nn(-c2ccc(Cl)cc2Cl)c1-c1cc(Br)cs1 [Cpd 47, 5-(4-bromo-thiophen-2-yl)-1-(2,4-dichloro-phenyl)-4-methyl-1H-pyrazole-3-carboxylic acid [(1S)-1-pyridin-2-yl-ethyl]-amide] | – | 46% | 56% | –
Cc1c(C(=O)NN2CCCCC2)nn(-c2ccc(Cl)cc2Cl)c1-c1cccs1 [Cpd 10, 1-(2,4-dichloro-phenyl)-4-methyl-5-thiophen-2-yl-1H-pyrazole-3-carboxylic acid piperidin-1-ylamide] | – | 6% | 37% | –
C[C@@H](NC(=O)c1nn(-c2ccc(Cl)cc2Cl)c(-c2ccc(Cl)s2)c1C#N)c1ccccc1 [Cpd 25, 5-(5-chloro-thiophen-2-yl)-4-cyano-1-(2,4-dichloro-phenyl)-1H-pyrazole-3-carboxylic acid [(1R)-1-phenyl-ethyl]-amide] | 16 nM | 13% | – | –
Cc1c(C(=O)NN2CCCCC2)nn(-c2ccc(Cl)cc2Cl)c1-c1cc(Br)cs1 [Cpd 44, 5-(4-bromo-thiophen-2-yl)-1-(2,4-dichloro-phenyl)-4-methyl-1H-pyrazole-3-carboxylic acid piperidin-1-ylamide] | – | 53% | 74% | –
N#Cc1c(C(=O)N2CCCCC2)nn(-c2ccc(Cl)cc2Cl)c1-c1cccs1 [Cpd 21, 1-(2,4-dichloro-phenyl)-3-(piperidine-1-carbonyl)-5-thiophen-2-yl-1H-pyrazole-4-carbonitrile] | – | 3% | 12% | –
Cc1c(C(=O)N[C@@H](C)c2ccccc2)nn(-c2ccc(Cl)cc2Cl)c1-c1cccs1 [Cpd 7, 1-(2,4-dichloro-phenyl)-4-methyl-5-thiophen-2-yl-1H-pyrazole-3-carboxylic acid [(1S)-1-phenyl-ethyl]-amide] | – | 0% | 28% | –
Cc1c(C(=O)NN2CCCCC2=O)nn(-c2ccc(Cl)cc2Cl)c1-c1ccc(Cl)s1 [Cpd 30, 5-(5-chloro-thiophen-2-yl)-1-(2,4-dichloro-phenyl)-4-methyl-1H-pyrazole-3-carboxylic acid (2-oxo-piperidin-1-yl)-amide] | – | 15% | 17% | –
Cc1ccc(-c2c(C)c(C(=O)N[C@@H](C)c3ccccc3)nn2-c2ccc(Cl)cc2Cl)o1 [Cpd 54, 1-(2,4-dichloro-phenyl)-4-methyl-5-(5-methyl-furan-2-yl)-1H-pyrazole-3-carboxylic acid [(1S)-1-phenyl-ethyl]-amide] | – | 52% | – | 140 nM
Cc1ccc(-c2c(C)c(C(=O)N[C@H](C)C3CCCCC3)nn2-c2ccc(Cl)cc2Cl)o1 [Cpd 57, 1-(2,4-dichloro-phenyl)-4-methyl-5-(5-methyl-furan-2-yl)-1H-pyrazole-3-carboxylic acid [(1R)-1-cyclohexyl-ethyl]-amide] | – | 28% | 46% | –
